Among the data in ChEMBL document CHEMBL1134959, “Synthesis and testing of 2alpha-modified 1alpha,25-dihydroxyvitamin D(3) analogues with a double side chain: marked cell differentiation activity” (2002) are Activity values, retold here.

Assay [1] deals with T1, Vitamin D3 receptor (Bos taurus) (UniProt Q28037).
T1 sequence (whole entry): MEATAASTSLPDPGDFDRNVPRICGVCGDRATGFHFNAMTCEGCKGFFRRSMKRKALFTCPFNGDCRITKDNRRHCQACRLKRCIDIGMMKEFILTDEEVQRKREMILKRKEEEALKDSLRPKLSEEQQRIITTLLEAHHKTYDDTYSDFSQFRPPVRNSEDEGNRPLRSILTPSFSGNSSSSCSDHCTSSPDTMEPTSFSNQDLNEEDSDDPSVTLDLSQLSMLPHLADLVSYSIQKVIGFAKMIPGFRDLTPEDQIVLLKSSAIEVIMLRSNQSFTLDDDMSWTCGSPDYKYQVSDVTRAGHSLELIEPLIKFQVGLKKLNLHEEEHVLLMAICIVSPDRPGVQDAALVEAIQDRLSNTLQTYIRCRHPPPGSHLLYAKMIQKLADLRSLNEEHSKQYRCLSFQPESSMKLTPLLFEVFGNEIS
Description: Affinity for bovine thymus vitamin D receptor.

The subject of assay [2] is HL-60. Description: Compound was evaluated for its relative cell differentiation of human promyelocytic leukemia cells (HL-60). Type of assay: functional.

The structures appear in SMILES notation.

In the case of `C=C1/C(=C\C=C2/CCC[C@]3(C)[C@@H]([C@H](C)CCCC(C)(C)O)CC[C@@H]23)C[C@@H](O)C[C@@H]1O` [CALCITRIOL], the Activity in assay [1] and in assay [2] was 100 throughout.
`C=C1/C(=C\C=C2/CCC[C@@]3(C)C2CC[C@@H]3C(CCCC(C)(C)O)CCCC(C)(C)O)C[C@@H](O)[C@H](OCCCO)[C@@H]1O` (stereo not given in full): the Activity in assay [1] is 36; in assay [2], 1920.
For `C=C1/C(=C\C=C2/CCC[C@@]3(C)C2CC[C@@H]3C(CCCC(C)(C)O)CCCC(C)(C)O)C[C@@H](O)[C@H](C)[C@@H]1O` (stereo not given in full), the figures for the Activity in assay [1] and in assay [2] were 53 and 3840, respectively.
For `C=C1/C(=C\C=C2/CCC[C@@]3(C)C2CC[C@@H]3C(CCCC(C)(C)O)CCCC(C)(C)O)C[C@@H](O)[C@H](CCCO)[C@@H]1O` (stereo not given in full), in that order: 57 and 1280.
For `C=C1/C(=C\C=C2/CCC[C@@]3(C)C2CC[C@@H]3C(CCCC(C)(C)O)CCCC(C)(C)O)C[C@@H](O)C[C@@H]1O` (stereo not given in full), in that order: 24 and 1060.
